# Measured values published in US20140093499A1, “PHARMACEUTICAL COMBINATIONS COMPRISING DUAL ANGIOPOIETIN-2 / DLL4 BINDERS AND ANTI-VEGF AGENTS” (BOEHRINGER INGELHEIM INTERNATIONAL GMBH, priority 2012, published 2014).
# Assays:
# [1] = system: human non-small cell lung cancer (NCl-H1975) xenografts; assay: NCl-H1975 subcutaneous xenograft efficacy in nude mice; assay type: in vivo; details: NCl-H1975, day 1 to day 14; Bevacizumab 25 mg/kg twice weekly i.p., BIBF 1120 50 mg/kg daily p.o., BI-1 13.6 mg/kg twice weekly i.p.
# Description: The goal of the present study was to assess the efficacy of BI-1 in combination with Bevacizumab and BIBF 1120 in a model of human non small cell lung cancer (NCl-H1975) in nude mice.
# • Model: Subcutaneous xenografts of the human non-small cell lung cancer (NCl-H1975) growing in nude mice
# To establish subcutaneous tumors, NCl-H1975 cells were harvested by centrifugation, washed and resuspended in PBS+5% FCS at 5×10^7 cells/ml. 100 μl cell suspension containing 5×10^6 cells was then injected subcutaneously into the right flank of the mice (1 site per mouse). Mice were randomly distributed between the treatment and the vehicle control group (7 days after cell injection) when tumors were well established and had reached volumes of 63 to 104 mm3.
# The doses of BI-1 and Bevacizumab were calculated to the average body weight of all mice on day 1 (28 g) and administered intraperitoneally twice weekly in a volume of 100 μl per mouse. BIBF 1120 was dosed according to the body weight (mg/kg) and administered daily perorally.
# Tumor diameters were measured three times a week (Monday, Wednesday and Friday) with a caliper. The volume of each tumor [in mm3] was calculated according to the formula “tumor volume=length*diameter2*π/6.” To monitor side effects of treatment, mice were inspected daily for abnormalities and body weight was determined three times a week (Monday, Wednesday and Friday). […]
# [2] = Body weight and deaths in PDX tumor-bearing nude mice; details: mouse, in vivo
# Description: Mice were 5-7 week-old female Crl:NMRI-Foxn1^nu purchased from Charles River, Sulzfeld, Germany. After arrival, mice were allowed to adjust to ambient conditions for at least 5 days before they were used for the experiments. They were housed in individual ventilated Makrolon® type II long cages under standardized conditions at 25±1° C. temperatures and 55±10% humidity. Standardized diet (Teklad Global 19% Protein Extruded Diet (T.20195.12) from Harlan Laboratories) and sterile filtrated and acidified (pH 2.5) tap water were provided ad libitum. Ear clips were used to identify each mouse. Cage cards showing the study number, the animal identification number, the compound and dose level, the administration route as well as the schedule remained with the animals throughout the study.
# Tumor diameters were measured twice weekly with a caliper. The volume of each tumor [in mm^3] was calculated according to the formula “tumor volume=length*diameter^2*0.5.” To monitor side effects of treatment, mice were inspected daily for abnormalities and body weight was determined twice weekly. Animals with tumor sizes exceeding 1.5 cm in diameter or 20% body weight loss were euthanized for ethical reasons.
# [3] = system: LXFE 1422 non small cell lung cancer xenograft; assay: LXFE 1422 patient-derived tumor xenograft efficacy in nude mice; assay type: in vivo, human; details: BI-1 13.6 mg/kg twice weekly i.p., BIBF1120 50 mg/kg once daily p.o., Bevacizumab 15 mg/kg twice weekly i.p.
# Text: (§1) The goal of the present study was to assess the efficacy of BI-1 in combination with Bevacizumab, BIBF1120 or Sunitinib in models of human non small cell lung cancer (LXFE 211, LXFE 1422), colon cancer (CXF 243), mammary cancer (MAXF 401), ovarian cancer (OVXF 1353), pancreatic cancer (PAXF 546) and renal cancer (RXF 1220) in nude mice. All models were patient-derived tumor xenografts (PDX), which were transplanted from patients to nude mice and passaged subcutaneously. These models retain most of the characteristics of the parental patient tumors including histology.
# (§2) Tumor fragments were obtained from tumor xenografts in serial passage in nude mice. After removal from donor mice, tumors were cut into fragments (4-5 mm diameter) and placed in PBS until subcutaneous implantation. Recipient mice were anesthetized by inhalation of isoflurane. […] Mice were monitored daily. […]
# (§3) The doses of BI-1 and Bevacizumab were calculated to the average body weight of all mice on day 1 (28 g) and administered intraperitoneally twice weekly in a volume of 100 μl per mouse. […]
# (§4) Tumor diameters were measured twice weekly with a caliper. The volume of each tumor [in mm^3] was calculated according to the formula “tumor volume=length*diameter^2*0.5.” To monitor side effects of treatment, mice were inspected daily for abnormalities and body weight was determined twice weekly. […]
# [4] = system: LXFE 211 non small cell lung cancer xenograft; assay: LXFE 211 patient-derived tumor xenograft efficacy in nude mice; assay type: in vivo, human; details: BI-1 13.6 mg/kg twice weekly i.p., BIBF1120 50 mg/kg once daily p.o., Bevacizumab 15 mg/kg twice weekly i.p.
# Text: as §1, §2, §3, §4
# [5] = system: MAXF 401 mammary cancer xenograft; assay: MAXF 401 patient-derived tumor xenograft efficacy in nude mice; assay type: in vivo, human; details: BI-1 13.6 mg/kg twice weekly i.p., BIBF1120 50 mg/kg once daily p.o., Bevacizumab 15 mg/kg twice weekly i.p.
# Text: as §1, §2, §3, §4
# [6] = system: PAXF 546 pancreatic cancer xenograft; assay: PAXF 546 patient-derived tumor xenograft efficacy in nude mice; assay type: in vivo, human; details: BI-1 13.6 mg/kg twice weekly i.p., BIBF1120 50 mg/kg once daily p.o., Bevacizumab 15 mg/kg twice weekly i.p.
# Text: as §1, §2, §3, §4
# [7] = system: RXF 1220 renal cancer xenograft; assay: RXF 1220 patient-derived tumor xenograft efficacy in nude mice; assay type: in vivo, human; details: BI-1 13.6 mg/kg twice weekly i.p., Sunitinib 40 mg/kg once daily, Bevacizumab 15 mg/kg twice weekly i.p.
# Text: as §1
# Sunitinib (Sutent®, Pfizer) tablets were ground with mortar and pestle and 108.48 mg powder (corresponding to 32 mg API; correction factor: 3.39) were dissolved in PBS (pH 5).
# Tumor fragments were obtained from tumor xenografts in serial passage in nude mice. […] Mice were monitored daily. […]
# as §3, §4
# [8] = system: OVXF 1353 ovarian cancer xenograft; assay: OVXF 1353 patient-derived tumor xenograft efficacy in nude mice; assay type: in vivo, human; details: BI-1 13.6 mg/kg twice weekly i.p., BIBF1120 50 mg/kg once daily p.o., Bevacizumab 15 mg/kg twice weekly i.p.
# Text: as §1, §2, §3, §4
# [9] = system: CXF 243 colon cancer xenograft; assay: CXF 243 patient-derived tumor xenograft efficacy in nude mice; assay type: in vivo, human; details: BI-1 13.6 mg/kg twice weekly i.p., BIBF1120 50 mg/kg once daily p.o., Bevacizumab 15 mg/kg twice weekly i.p.
# Text: as §1, §2, §3, §4
Compound,median TGI (tumor growth inhibition) [1] [%],maximum median body weight loss [2] [%],TGI [3] [%],TGI [4] [%],TGI [5] [%],TGI [6] [%],TGI [7] [%],TGI [8] [%],TGI [9] [%]
Bevacizumab,82,9.1,63,37,68,59,,,
CCN(CC)CCNC(=O)c1c(C)[nH]c(/C=C2\C(=O)Nc3ccc(F)cc32)c1C [Sunitinib],,,,,,,62,,
COC(=O)c1ccc2c(c1)NC(=O)/C2=C(\Nc1ccc(N(C)C(=O)CN2CCN(C)CC2)cc1)c1ccccc1 [BIBF 1120],75,5.9,57,40,63,69,,78,65
